Consider 7 compounds from ChEMBL document CHEMBL2346508, “Bifunctional inhibition of HIV-1 reverse transcriptase: a first step in designing a bifunctional triphosphate” (Bioorg Med Chem Lett, 2013).

Structures are written as SMILES. Calls of active or inactive are those of the source. The rule behind the calls is not given here. A value given as a limit tells only on which side of the number the result lay.

One experiment relates to MT2. Nature of the experiment: Cytotoxicity against human MT2 cells after 5 days by MTT assay. It counts as cell-based. The settings on record: MT2, 120 h. On the technique in general: Tetrazolium dyes change colour on reduction, which living cells bring about.
In experiment [1] the test system is Human immunodeficiency virus 1. Nature of the experiment: Antiviral activity against HIV-1 infected un MT2 cells assessed as virus-induced cytopathicity after 5 days by MTT assay. It counts as functional, organism-based. The settings on record: Human immunodeficiency virus 1, MT2, 120 h. A general note: Cytopathic effects are the visible damage that an infection or toxin causes in cultured cells.

The target in experiment [2] is Human immunodeficiency virus type 1 reverse transcriptase (Human immunodeficiency virus 1) (UniProt Q72547). Kind of experiment: Inhibition of HIV-1 RT assessed as inhibition of annealing of D23/D36 primer/template at 150 uM by polyacrylamide denaturing gel-based incorporation assay.

As a reminder, the IC50 is the midpoint of a concentration-inhibition curve. High values mean weaker potency in that assay, low ones greater potency in that assay. Usually EC50 stands for the midpoint of the concentration-response curve. `CC(C)=CCN1Cc2c(OCCOCCOCCOCCOCCOCCOCCOCCOC(=O)CCc3cn([C@H]4C=C[C@@H](CO)O4)c(=O)[nH]c3=O)ccc3[nH]c(=S)n(c23)C[C@@H]1C` had a half-inhibitory concentration (IC50) with MT2 above 100 µM. Besides, the EC50 in experiment [1] amounted to 120 µM.

`CC(C)=CCN1Cc2c(OCCOCCOCCOCCOCCOCCOCCOCCO)ccc([N+](=O)[O-])c2NC[C@@H]1C`: the IC50 in the experiment on MT2 was above 100 µM. Besides, the EC50 in experiment [1] came out at 27 µM.

Regarding `CC(C)=CCN1Cc2c(OCCOCCOCCOCCOC(=O)CCc3cn([C@H]4C=C[C@@H](CO)O4)c(=O)[nH]c3=O)ccc3[nH]c(=S)n(c23)C[C@@H]1C`, the 50% inhibitory concentration (IC50) in the experiment on MT2 is above 100 µM. The 50% effective concentration (EC50) in experiment [1] came out at 45 µM.

On to `CC(C)=CCN1Cc2c(OCCOCCOCCOCCOCCOCCn3c(=O)ccn([C@H]4C=C[C@@H](COP(=O)(O)OP(=O)(O)OP(=O)(O)O)O4)c3=O)ccc3[nH]c(=S)n(c23)C[C@@H]1C`, for which, in experiment [2], the inhibition result is “inactive”.

Regarding `CC(C)=CCN1Cc2c(OCCOCCOCCOCCOCCOCCOC(=O)CCc3cn([C@H]4C=C[C@@H](CO)O4)c(=O)[nH]c3=O)ccc3[nH]c(=S)n(c23)C[C@@H]1C`, the IC50 in the experiment on MT2 was above 100 µM. The EC50 in experiment [1] was 100 µM.

For `CC(C)=CCN1Cc2c(OCCOCCOCCOCCOCCOCCn3c(=O)ccn([C@H]4C=C[C@@H](CO)O4)c3=O)ccc3[nH]c(=S)n(c23)C[C@@H]1C`, the IC50 with MT2 stood at 38 µM. Besides, the EC50 in experiment [1] came out at 20 µM.

In the experiment with MT2, `Cc1cn([C@H]2C=C[C@@H](CO)O2)c(=O)[nH]c1=O` [STAVUDINE] came in with an IC50 above 100 µM. Also, the EC50 in experiment [1] amounted to 2.2 µM.
